This data set deals with T1, P-gp (Homo sapiens, UniProt P08183).
T1 construct: expressed in transfected cells; host or cells: MDA-435/LCC6 MDR cells, with MDA-435/LCC6 WT as the P-gp-negative comparison
Put plainly: FACS accumulation/efflux in MDA-435/LCC6 MDR cells compared with WT cells. It is filed as cell-based. An excerpt: Before tests were initiated, P-gp expression in both MDR and WT cells was confirmed by Western blot, which confirmed the expression of P-gp in the MDR cells and the lack of expression in WT cells. The protein band in the MDR cells was visible around the molecular weight of P-gp, 170 kDa, which correlates to the reported molecular weight of the protein.
No differences in P-gp function were observed. […] Statistics represent the significance differences in WT/MDR accumulation ratio at a p-value of <0.01.

T1 sequence (P08183 whole entry): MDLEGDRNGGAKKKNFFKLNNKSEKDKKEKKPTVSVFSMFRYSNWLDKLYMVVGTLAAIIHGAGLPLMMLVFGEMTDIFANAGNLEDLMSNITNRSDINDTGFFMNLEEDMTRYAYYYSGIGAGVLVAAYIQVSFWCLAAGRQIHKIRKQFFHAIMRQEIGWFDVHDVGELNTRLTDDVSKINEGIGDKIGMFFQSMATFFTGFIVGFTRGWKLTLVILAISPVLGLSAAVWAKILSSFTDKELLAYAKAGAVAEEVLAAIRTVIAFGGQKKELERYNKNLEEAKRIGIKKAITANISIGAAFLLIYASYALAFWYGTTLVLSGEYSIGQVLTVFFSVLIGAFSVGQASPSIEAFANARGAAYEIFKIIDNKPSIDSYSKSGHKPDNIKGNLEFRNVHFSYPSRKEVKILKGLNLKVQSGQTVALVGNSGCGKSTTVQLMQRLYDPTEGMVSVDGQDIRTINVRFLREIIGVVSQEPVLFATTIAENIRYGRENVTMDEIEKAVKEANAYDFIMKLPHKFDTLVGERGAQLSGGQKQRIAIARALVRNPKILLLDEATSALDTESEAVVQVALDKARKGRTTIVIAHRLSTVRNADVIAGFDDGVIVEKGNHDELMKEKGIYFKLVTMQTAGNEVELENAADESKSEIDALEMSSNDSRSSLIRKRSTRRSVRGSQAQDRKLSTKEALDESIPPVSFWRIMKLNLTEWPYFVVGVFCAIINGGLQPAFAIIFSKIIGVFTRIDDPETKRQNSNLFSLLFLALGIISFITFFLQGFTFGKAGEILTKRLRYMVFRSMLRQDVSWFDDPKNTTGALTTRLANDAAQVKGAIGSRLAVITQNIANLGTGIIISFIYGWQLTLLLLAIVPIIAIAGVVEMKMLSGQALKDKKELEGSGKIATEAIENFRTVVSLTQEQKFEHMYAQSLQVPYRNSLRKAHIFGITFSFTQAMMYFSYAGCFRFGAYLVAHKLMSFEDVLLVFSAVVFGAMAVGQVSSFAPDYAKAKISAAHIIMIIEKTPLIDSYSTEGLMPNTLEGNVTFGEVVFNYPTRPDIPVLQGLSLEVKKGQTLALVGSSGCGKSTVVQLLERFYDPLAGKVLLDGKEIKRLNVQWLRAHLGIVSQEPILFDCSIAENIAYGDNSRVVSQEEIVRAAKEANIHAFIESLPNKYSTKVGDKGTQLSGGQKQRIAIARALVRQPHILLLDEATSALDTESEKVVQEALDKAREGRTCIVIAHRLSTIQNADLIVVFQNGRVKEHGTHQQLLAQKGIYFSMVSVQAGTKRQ

Turning to Rhodamine 123 [free Rho123], the “accumulation in MDR cells at 4° C.” value (4° C. relative to 37° C.) is recorded as “increase”. In addition, the “WT to MDR accumulation ratio with verapamil” value (5, 25, 50, 75 and 100 μM verapamil, mode fluorescence) is “increase in accumulation ratio with increasing verapamil concentration”.

The record behind these values is patent US20160279263A1, “DRUG DELIVERY COMPOSITIONS AND METHODS TARGETING P-GLYCOPROTEIN” (CORNELL UNIVERSITY, priority 2012, published 2016).
